Experimental findings from ChEMBL document CHEMBL3098109, “The identification of AF38469: an orally bioavailable inhibitor of the VPS10P family sorting receptor Sortilin” (Bioorg Med Chem Lett, 2014) are described below.

Each structure is given as a SMILES string. ≈ marks a conversion by molar mass, not a printed value.

The target in data set [1] is Sortilin (Homo sapiens) (UniProt Q99523). Put plainly: Displacement of [3H]-neurotensin from sortilin (unknown origin) at 50 uM incubated 30 mins prior to [3H]-neurotensin addition measured after 6 hrs by scintillation proximity assay. On the technique in general: In a radioligand displacement assay an active substance lowers the binding of a labelled ligand.
Data set [2] is described as follows: Half life in rat at 1 mg/kg, iv. Particulars: in vivo. Also on record: dose 1 mg/kg, route intravenous. The class given is ADME, organism-based.
Data set [3] is described as follows: Intrinsic clearance in rat. Format: ADME, organism-based. The settings on record: in vivo.
The nature of data set [4]: Oral bioavailability in rat at 2 mg/kg. The class given is ADME, organism-based. The settings on record: in vivo.
The nature of data set [5]: Free plasma concentration in rat. Format: ADME, cell-free.
A short description of data set [6]: Volume of distribution at steady state in rat at 1 mg/kg, iv. The class given is ADME, organism-based. Further details: dose 1 mg/kg, route intravenous. Particulars: in vivo, read-out: Vdss.
A short description of data set [7]: Solubility of the compound. Format: physicochemical.
Data set [8] is described as follows: Cmax in rat at 2 mg/kg, po. Format: ADME, organism-based. Also on record: dose 2 mg/kg, route oral. Particulars: in vivo.
The nature of data set [9]: Blood clearance in rat at 1 mg/kg, iv. Format: ADME, organism-based. Further details: dose 1 mg/kg, route intravenous. The settings on record: whole blood.
Data set [10] addresses T1, Sortilin (Homo sapiens, UniProt Q99523).
T1 sequence (Q99523 whole entry): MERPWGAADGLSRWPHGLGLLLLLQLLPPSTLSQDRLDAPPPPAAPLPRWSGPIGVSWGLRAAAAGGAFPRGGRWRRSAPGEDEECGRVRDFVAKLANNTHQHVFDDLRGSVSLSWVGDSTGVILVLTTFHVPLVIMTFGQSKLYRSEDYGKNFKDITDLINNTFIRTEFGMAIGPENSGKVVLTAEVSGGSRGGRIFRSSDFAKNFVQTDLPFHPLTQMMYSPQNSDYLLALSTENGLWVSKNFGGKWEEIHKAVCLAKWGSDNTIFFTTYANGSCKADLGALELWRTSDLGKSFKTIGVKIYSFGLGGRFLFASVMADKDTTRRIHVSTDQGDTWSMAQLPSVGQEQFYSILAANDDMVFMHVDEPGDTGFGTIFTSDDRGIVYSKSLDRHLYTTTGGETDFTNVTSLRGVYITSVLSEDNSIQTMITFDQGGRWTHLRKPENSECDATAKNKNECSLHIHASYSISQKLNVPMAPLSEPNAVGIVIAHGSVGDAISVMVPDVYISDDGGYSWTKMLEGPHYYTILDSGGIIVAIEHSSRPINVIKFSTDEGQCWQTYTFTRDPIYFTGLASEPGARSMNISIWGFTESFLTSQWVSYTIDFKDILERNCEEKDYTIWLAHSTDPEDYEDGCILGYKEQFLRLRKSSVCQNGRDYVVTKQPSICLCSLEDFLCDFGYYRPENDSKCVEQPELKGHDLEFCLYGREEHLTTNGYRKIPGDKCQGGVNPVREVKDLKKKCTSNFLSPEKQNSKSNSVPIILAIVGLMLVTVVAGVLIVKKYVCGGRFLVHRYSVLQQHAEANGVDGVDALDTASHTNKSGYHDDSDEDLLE

Molecule `Cc1cccc(NC(=O)c2cccc(C)c2C(=O)O)n1` registered an inhibition in [1] of 5%. In the case of `Cc1cccc(NC(=O)c2ccccc2C(=O)O)n1`, the inhibition in data set [1] came out at 15%. `Cc1cccc(NC(=O)c2c(C)cccc2C(=O)O)n1`: the inhibition in data set [1] worked out at 43%. On the same count and under the same terms, the same measure for `Cc1cccc(NC(=O)c2cc(Cl)ccc2C(=O)O)n1`: 69%; for `Cc1cccnc1NC(=O)c1ccc(Br)cc1C(=O)O`: 64%; for `Cc1ccc(C(=O)O)c(C(=O)Nc2cccc(C)n2)c1`: 57%.

For `Cc1cccc(NC(=O)c2ccc(-c3ccccc3)cc2C(=O)O)n1`, the inhibition in data set [1] came to 2%. `Cc1ccc(NC(=O)c2ccc(Br)cc2C(=O)O)cn1`: the inhibition in [1] is 70%. Regarding `CCC(C)NC(=O)c1ccc(Br)cc1C(=O)O` (stereo not given), in [1], the inhibition amounted to 30%. `Cc1cccc(NC(=O)c2ccc(C(F)(F)F)cc2C(=O)O)n1` showed a half-life in data set [2] of 1.2 h. For the same molecule, in data set [3], the CLint scaled is 0.4 L/h/kg. Besides, the bioavailability in [4] is 35%. In [5], this molecule yielded a free fraction (fraction unbound) of 0.02. Besides, the Vd in [6] turned out to be 0.02 L/kg. The solubility in data set [7] was found to be 0.134 mg/mL (≈ 413 µM). In addition, in data set [8], the Cmax amounted to 12.8 µg/mL. Besides, in data set [9], the clearance was 0.03 L/h/kg. For the molecule `Cc1cc(=O)oc2c(CN[C@@H](CC(C)C)C(=O)O)c(O)ccc12`, it took 4 µM to reach half-maximal inhibition in data set [10] (IC50). `O=C(O)c1cc(Br)ccc1C(=O)Nc1ccccc1` registered an inhibition in data set [1] of 69%.

With `CC(C)NC(=O)c1ccc(Br)cc1C(=O)O`, the inhibition in data set [1] amounted to 35%.

As usually defined, the inhibition is the percentage by which the read-out fell short of the control. A lower inhibition goes with a weak effect. Usually half-life stands for the time in which the quantity being followed falls by half. Higher therefore signals slow decline. A word on the CLint scaled: it is the rate of metabolic loss divided by the concentration. In general, bioavailability refers to the share of a dose that reaches the circulation, judged against a reference dose that is usually intravenous. A higher bioavailability goes with good availability. A word on the fraction unbound: it is the share of the substance not bound to proteins or other matrix. Usually solubility stands for how much of the substance goes into solution per volume. A low value points to a poorly soluble substance. What is called Cmax is the maximum level reached in the sampled fluid or tissue. What is called clearance is the volume of plasma or blood freed of the substance per unit of time. Low values mean inefficient removal, high ones efficient removal. The term IC50 denotes the concentration that inhibits the measured activity by half. Higher therefore signals weaker potency in that assay.
